The results in this text go back to patent US20260248918A1, “COMPOSITIONS AND METHODS OF SUPPRESSING AVERSIVENESS OF PHARMACEUTICALS AND INGESTIBLE MATERIALS” (Monell Chemical Senses Center, priority 2019, published 2026).

SMILES strings stand for the structures.

This assay has as its system human subjects. Nature of the assay: Human sensory testing (gLMS) of API bitterness with blocker, as pre-rinse or admixture. The class given is in vivo. From the text:
Methods of evaluating the sensory properties of the API and admixtures with the blocker compounds of Formula A are adopted from Breslin PA, and Tharp CD, “Reduction of saltiness and bitterness after a chlorhexidine rinse,” Chem Senses. 2001 February; 26(2):105-16. More details are illustrated below.
Subjects participate in the study after providing informed consent. Gender of the subjects is balanced between male and female. The subjects are adults with ages ranging from 20 years old to 50 years old. […] The participants are asked to refrain from eating, drinking, or chewing gum for 1 hr prior to testing. Subjects are trained to use the General Labeled Magnitude Scale (gLMS) following standard published procedures. See. e.g., Breslin P A, and Tharp C D. “Reduction of saltiness and bitterness after a chlorhexidine rinse,” Chem Senses. 2001 February; 26(2): 105-16; Keast and Breslin, “Bitterness suppression with zinc sulfate and Na-cyclamate: a model of combined peripheral and central neural approaches to flavor modification.” Pharm Res. 2005 November; 22(11):1970-7. Epub 2005 Aug. 26; Green et al, “Evaluating the ‘Labeled Magnitude Scale’ for measuring sensations of taste and smell.” Chem Senses. 1996 June; 21(3):323-34; Barry G. Green, et al, “Derivation and evaluation of a semantic scale of oral sensation magnitude with apparent ratio properties,” Chemical Senses, Volume 18, Issue 6, 1 Dec. 1993, Pages 683-702; and Bartoshuk L M, “Comparing sensory experiences across individuals: recent psychophysical advances illuminate genetic variation in taste perception.” Chem Senses. 2000 August; 25(4):447-60.
The selected API (in racemic or L form as applicable) is diluted/dissolved in deionized (di) filtered water upon use into various concentrations. […] The API is prepared and dissolved in deionized filtered water or in […] 6-methylflavone to a final concentration. All solutions are stored on ice or at 4° C. to 8° C. and brought up to room temperature prior to testing.
The following testing protocol is performed. The tested solutions are provided to the subjects in random order. Subjects rinsed with di water at least four times over a 2-minute period prior to tasting each solution. The subjects are instructed to wear nose clips to eliminate olfactory input, pour the whole solution in their mouth for 3-5 seconds, and rate the perceived sensation (including bitterness, sourness, astringency, burning, stinging and nausea) intensity of the solution while it remained in the mouth, prior to expectorating. Taste intensity is recorded on a computerized gLMS, analyzed and plotted.

On to `Cc1ccc2oc(-c3ccccc3)cc(=O)c2c1` [6-methylflavone], for which the “Blocking the bitter taste of piperaquine and TAF” value (admixture, subset of human subjects) was “effective antagonist”. Also, the “Suppression of TAF bitterness” value is, setting by setting: (another subject, FIGS. 11A/11B, 0.5 mg/mL TAF, pre-rinse then admixture, blocker 100 μM) “worked”; (another subject, FIGS. 11A/11B, 0.5 mg/mL TAF, pre-rinse then admixture, blocker 1 mM) “worked even better”; (one subject, FIGS. 8A/8B, 0.5 mg/mL TAF with and without 100 μM blocker) “significant suppression”; (one subject, FIGS. 9A/9B, 0.5 mg/mL TAF alone vs pre-rinse vs pre-rinse containing 100 μM blocker) “did not show significant suppression”; (one subject, FIGS. 10A/10B, 0.5 mg/mL TAF, pre-rinse then admixture, blocker 100 μM) “no bitterness suppression”. For the same compound, the “Average perceived bitterness intensity of piperaquine” value (piperaquine 8 mg/mL treated with 100 μM blocker, FIG. 6) was “affected”. Besides, the “Blocking effect for TAF and piperaquine with added pre-rinse” value (pre-rinse with the blocker added, compared with admixture alone) is given as “stronger”.
